Series [1] deals with normal red cells. The series can be described thus: Extraction of chelatable iron, normal red cells (NRC). It counts as cell-based, human. The settings on record: Experiment 1, NRC, 12 μM, 2 hours at 37° C (untreated <0.1). The procedure:
l. Extraction of chelatable iron. Trophozoite stage parasites were obtained from step gradient of Percoll-3% L-alanine in phosphate buffered saline (10 mM Na-phosphate, 150 mM NaCl, pH 7.4). Cell suspensions of 100% parasitemia were adjusted to 1% hematocrit and placed in RPMI growth medium supplemented with 50 mM sucrose and 20 mM glucose. Pretreatment of cells was done with 12 μM of the indicated SF derivative or DMSO for 2 hours at 37° C. at which time the cells were washed twice in 500× volume of buffer containing 150 mM NaCl, 10 mM HEPES and 50 mM sucrose pH=7.4 Next the cells were incubated for additional 3 hours in 6.8 μM NBD-DFO and washed to remove fluorescent probe. Measurements of chelatable iron were carried out in the TCA soluble fraction of freeze thaw lysates as described by Lytton, S. D. et al., 1991 Mol. Pharmacol. 40:584-590.
Iron extractions were performed on cell suspensions treated (yes) or untreated (no) with 12 μM RSF n2-ileu for 2 hours at 37° C. Fluorescence assays of chelatable iron in non-infected (NRC) and in parasitized (IRC) red cells were carried out as described by Lytton et al., (1991) Mol. Pharmacol. 40:584.

Series [2] concerns Plasmodium falciparum. Kind of series: Antimalarial activity, general comparison and statements. It is filed as cell-based. Here is the method:
g. Bioassay of iron carrier antimalarial activity. The antimalarial activity was assayed by adding the compounds from concentrated stock solutions (in DMSO) to microcultures (24 wells, Costar) containing infected red cells (2.5% hematocrit and 2% parasitemia). The cultures were usually synchronized (4-7 hrs. windows) by incubation in 300 mM Ala, 10 mM TRIS-Cl in conjunction with gelatin flotation and used either at the trophozoite (1-2% parasitemia) or at the ring stage (4-6% parasitemia) of the erythrocyctic cycle. After the indicated time of incubation with drug and either previous to or after washing 3 times with 100 volumes growth medium, the cells were supplemented with 6 μCi of either [^3 H]-hypoxanthine or [^3 H]-Ileu (Amersham, England) per well and parasite growth assessed after 24-48 hours by harvesting the labelled cells onto glass-fiber filters (Tamar, Inc. Jerusalem) and counting of the radioactivity.
The antimalarial activity of the different chelators was initially evaluated on cultures of trophozoites which were exposed for 24 hours to different concentrations of chelators. Following that period, [^3 H]-hypoxanthine or [^3 H]-Ileu were added and 24 hours later the parasitemia and incorporation of label into macromolecular material was determined.

The test system of series [3] is transferrin. The series can be described thus: Effect on iron in transferrin. Particulars: after the same time of exposure.
In series [4] the test system is mammalian cells in culture. The series can be described thus: Growth/toxicity in mammalian cells in culture, general statement. It is filed as cell-based. Here is the method: The possibility that the reversed siderophores might affect mammalian cells in culture was assessed in conditions identical to those used for parasites in cultures. […] Nucleic acid synthesis was measured in cultures of mouse NIH 3T3 fibroblasts and human HT29 colonic carcinoma cells in the presence of either SF1-ileu (open circles), desferrioxamine (DFO) (solid triangle) in DMSO or DMSO alone (Control) (<1% final) (open triangles) at same concentrations. Cultures at confluence were exposed to chelators for 24 hours; the first 3 hours without radiolabel and 21 hours with 6 μCi/ml of [^3 H]-hypoxanthine. Extracellular hypoxanthine was removed by several washes with PBS and the cells were treated with 5% TCA for 15 minutes at 5° C. and solubilized with hot 2.5% SDS. Samples were taken for counting of radioactivity and measurement of protein (BCA, Pierce). Data are given as dpm/μg protein and SD (duplicate samples).

Entries after “also recorded” stand apart in the source; their conditions may differ.

With `CC[C@H](C)[C@H](NC(=O)CCOCC(CC)(COCCC(=O)N[C@H](C(=O)N(C)O)[C@@H](C)CC)COCCC(=O)N[C@H](C(=O)N(C)O)[C@@H](C)CC)C(=O)N(C)O` [SF1-ileu], the “Chelatable iron after RSF pretreatment” value in series [1] was 0.7 nmoles/10^10 cells. For the same compound, in series [2] (24-48 hours exposure, various strains), the “Efficiency relative to DFO” value was 6-13 fold. The “Speed of action relative to desferrioxamine” value in series [2] (faster acting than desferrioxamine) came to 20 fold. For the same compound, the “Arrest of parasite growth” value in series [2] (infected red blood cells) was “arresting parasite growth irreversibly within a few hours”. Moreover, in series [2] (more potent than desferrioxamine), the “Potency relative to desferrioxamine” value is 15 fold. For the same compound, the “Effect on iron in transferrin” value in series [3] is recorded as “not substantially affecting”. Also, the “Growth of / toxicity to mammalian cells in culture” value in series [4] was “does not affect the growth of various types of mammalian cells in culture; also recorded: not toxic to mammalian cells in culture”.
